Reference: patent publication US8895048B2, “Templated islet cells and small islet cell clusters for diabetes treatment” (The University of Kansas, priority 2010, dated 2014)

What follows are substances tested on beta cells (assay: Relative beta cell adhesion to biomaterial films in 96-well plates). Conditions: attached cells 24 hours after plating and three washes, normalized to empty well; triplicate.
Assay type: cell-based, rat
Procedure: In a typical experiment, 1% stock solutions of the listed biomaterials first were prepared. Most materials dissolved in deionized water at neutral pH. […] Polymers normally soluble in water (e.g. dextran sulfate, alginate, etc.) can be cross-linked to form the film matrix. Approximately 25 μL of each stock solution was added to three individual wells in 96-well plates and left to evaporate or vacuum dried, thus, depositing a thin biomaterial film at the bottom of each well. […] Several proteins offered commercially to promote cell adhesion on well plates (e.g. fibronectin, laminin, etc.) were prescreened for cell adhesion as well.
A dilute suspension of beta cells was incubated in the 96-well plates overnight and washed three times to remove unbound beta cells. The beta cell suspension was homogeneous and equal aliquots per well were assumed to contain a similar quantity of beta cells. […] In general, mildly hydrophobic polymers performed well for adhering beta cells (Table 1).
Cell adhesion was determined by counting the number of attached cells 24 hours after plating on the biomaterial and following three washes. The counts were normalized to the number of cells that attach to a well bottom lacking a biomaterial (see empty well, control) using the following calculation: number of cells attached in the well of interest/number of cells in empty well. Each experiment was repeated in triplicate.
Gelatin gave a Relative cell adhesion of 2.0 ± 0.2.
For Laminin, the Relative cell adhesion was 8.7 ± 0.6.
For Fibronectin, the Relative cell adhesion was 3.7 ± 0.7.
